{"source": "patent US20080300298A1", "about": "“Honokiol Derivates For the Treatment of Proliferative Disorders” (priority 2005, published 2008)", "key": {"MM.1S cells": {"system": "MM.1S cells", "experiment": "[3H]-thymidine uptake with IL-6, IGF-1 or BMSCs", "format": "cell-based, human", "settings": "48 h", "protocol": "DNA synthesis was measured as previously described, see, for example, Hideshima et al Blood. 2000; 96:2943-2950. Cells in 96-well culture plates were pulsed with 0.5 μCi/well of [^3H]-thymidine (Perkin Elmer, Boston, Mass.) during the last 8 h of culture, harvested onto glass filters with an automatic cell harvester (Cambridge Technology, Cambridge, Mass.), and counted using the LKB Betaplate scintillation counter (Wallac, Gaithersburg, Md.). All experiments were performed in triplicate.\nAssessment of HNK-induced cytotoxicity against patient MM cells: Cytotoxicity of HNK against fresh MM cells was determined as previously determined, see, for example, Mitsiades et al Cancer Cell. 2004; 5:221-230. […] A CD38^high fraction enriched for MM cells was determined in side and forward scatter panel in each case. The expression of CD138 on gated cells was also evaluated. After HNK-treatment for 48 h, cells were harvested and percentage of CD38^high cells with or without HNK-treatment was evaluated. […] Cells were stained with propidium iodide (PI; 50 μg/mL; Sigma, St Louis, Mo.), and cell cycle profile was determined by using the program M software on an EPICS XL flow cytometer (Beckman Coulter, Hialeah, Fla.). […] Fluorescence intensity of TUNEL and APO 2.7 staining was determined using on EPICS XL flow cytometer. Cytotoxicity was determined by trypan blue exclusion assay. […]"}, "SVR cells": {"system": "SVR cells", "experiment": "apoptosis of SVR cells", "format": "cell-based", "settings": "18 and 48 h", "protocol": "FIG. 13 illustrates the effect of honokiol and magnolol on apoptosis. The light columns represent SVR cells treated with magnolol, and the dark columns represent SVR cells treated with honokiol. The control lanes represent cells immediately after treatment compared with 18 and 48 h of treatment."}, "MDA-MB-231 cells": {"system": "MDA-MB-231 cells", "experiment": "MDA-MB-231 tumors in nude mice", "format": "in vivo", "protocol": "FIG. 36 is a graph of tumor volume over weeks of tumors in mice. MDA-MB-231 cells were injected into both flanks of athymic nude mice. The mice were treated with daily I.P. injections of either a vehicle (n=5) or HNK (2 mg/d, n=5) for four weeks.\nAnimal studies: All animals were maintained and animal experiments were performed under NIH and institutional guidelines established for the Animal Core Facility at the Cedars-Sinai Medical Center. MDA-MB-231 cells were harvested, washed twice with sterile PBS, counted and re-suspended in Matrigel (BD Biosciences, San Jose, Calif.). Six-week-old female athymic nude mice were injected subcutaneously in both flanks with cells at a density of 1×10^6 viable cells/100 μl. […] Tumor size was measured with a linear caliper for up to 5 weeks, and the volume was estimated by using the equation V=(a×b2)×0.5236, where “a” is the larger dimension and “b” the perpendicular diameter.\nIn vivo activity of HNK against human breast cancer. MDA-MB-231 cells were injected on both flanks of nude mice (1×10^6 cells per injection, five mice per group, two tumors in each mouse), and tumor growth was monitored weekly. […] The mice were treated with daily injections of either 2 mg HNK (100 mg/kg) or a control vehicle for four weeks; and the tumors were measured weekly."}}}
{"smiles": "C=CCc1ccc(O)c(-c2ccc(O)c(CC=C)c2)c1", "note": "[HNK, Honokiol]", "values": [{"measurement": "DNA synthesis triggered by binding to BMSCs", "setting": "MM.1S cells; MM.1S on BMSCs of MM patients", "result": "abrogated"}, {"measurement": "growth inhibition in the presence of IL-6 or IGF-1", "setting": "MM.1S cells; MM.1S", "result": "Neither IL-6 nor IGF-1 protected against HNK induced growth inhibition"}, {"measurement": "induction of apoptosis compared with magnolol", "setting": "SVR cells", "result": "more effective in the induction of apoptosis than magnolol"}, {"measurement": "tumor growth", "setting": "MDA-MB-231 cells; 2 mg HNK (100 mg/kg) daily i.p., four weeks, p<0.02 from week 2", "result": "complete arrest of tumor growth"}, {"measurement": "tolerability in the animals", "setting": "MDA-MB-231 cells; therapeutically beneficial doses", "result": "well tolerated by the animals"}]}
